Laboratory results taken from patent US11571460B2 (priority 2017, dated 2023).

Tests used:
[1] = tested on: splenocytes; assay: Melittin binding study with rhodamine-bound melittin in splenocytes; format: cell-based, mice
Procedure: After 1 hour, cells were harvested and the non-binding peptides were washed twice.
Next, the cells were cultured with rhodamine-bound peptides and stained with CD11b-APC antibodies as described above.
Annexin-V was added to a sample before data collection to distinguish dead cells. […] tumor-associated macrophage was stained with CD86-PEcy7 (e-bioscience) or CD206-PercpCy5.5 (Biolegend). The cells were detected in FACS Calibur or FACS CantoII.

[2] = tested on: bone marrow-derived macrophages; assay: Phagocytosis assay with latex bead-FITC; format: cell-based, mouse; conditions: vs control group
Procedure: Cells were smeared in a 96-assay well plate and treated as described above. The cells were pretreated for 30 minutes with or without cytochalasin D before treatment with latex bead-FITC (Sigma-Aldrich). After 2 hours of incubation, the cells were washed with PBS three times to remove foreign particles. Fluorescence of internalized beads was measured using emission of 527 nm after excitation of 485 nm in a fluorescent plate reader (Fluorskan Ascent FL) quenching with trypan blue.

[3] = tested on: Lewis lung carcinoma cells; assay: Tumor growth and survival in mice injected subcutaneously with Lewis lung carcinoma cells; format: in vivo, C57BL/6 mice
Procedure: A cancer growth rate in the control group was fast, but the cancer growth in the melittin-treated group was late.
(§1) Lewis lung carcinoma cells were mixed with a Matrigel matrix (Coming, N.Y., USA) to generate a tumor model. Male C57BL/6 wild-type mice (6 to 8 weeks old) were inoculated subcutaneously in the right flank with 5×10^4 cells per mouse. […] Before 3 days of tumor injection, macrophage deficiency was performed by clodronate liposomes (first dose of 200 μl per mouse, maintenance dose of 100 μl intraperitoneally every 4 days). Clodronate liposome and control liposome were purchased from FormuMax (Sunnyvale, Calif., USA). A tumor size was monitored every 2 to 3 days by measuring two opposite diameters (volume=length×width×width/2). If the tumor size exceeded 5% of the body weight, the mice were sacrificed for a next experiment set. Thereafter, the tumor and the spleen were surgically removed.

[4] = Body weight of tumor-bearing mice; format: in vivo
Procedure: The weights of mice were measured every 2 to 3 days until 0 to 18 days.

[5] = Blood cell profile test (hematological profiling); format: in vivo, mice
Procedure: The blood was collected from the retro-orbital plexus of mice under anesthesia. The blood was immediately mixed with EDTA and analyzed by a Hemavet 950 auto-sampler (Drew scientific, Waterbury, Conn., USA) according to manufacturer's instructions. The parameters of leukocytes, erythrocytes, and platelets were measured and expressed as a percentage.
The blood was collected via the retro-orbital plexus during anesthesia.

[6] = tested on: lung cancer cells; assay: Cell cycle analysis by PI staining and flow cytometry; format: cell-based; conditions: 0.1 to 2 μg/mL melittin
Procedure: The cells were collected, washed twice with PBS, fixed with 70% pre-cooled ethanol and stored at −20° C. overnight. The cells were washed and resuspended in PBS 500 μl containing 0.1% Triton X-100 and RNase 20 μg/ml. Next, 50 μg/ml of propidium iodide (PI) was added. Stained cells were cultured at 37° C. for 20 minutes and then detected by a FACS Calibur flow cytometer (Becton Dickinson, San Jose, Calif., USA). Data were analyzed by Flow Jo software (Treestar, Inc., San Carlos, Calif., USA).

[7] = tested on: splenocytes; assay: Flow cytometry of immune cells in splenocytes of tumor-bearing mice; format: in vivo
Procedure: (§2) A tissue was dissociated by cutting the tumor into thin pieces and gently stirring in DNase I (1 U/ml; Roche, Indianapolis, trypsin-EDTA (Gibco)) under DMEM (Welgene) preheated at 37° C. for 1 hour. The tissue was mechanically dissociated in a 100 μm nylon mesh strainer, then single cells passed through a 40 μm nylon mesh strainer, and the spleen was mechanically dissociated with a 40 μm nylon mesh strainer. RBC was dissolved for 5 minutes in a 1× pharmlyse buffer.
(§3) The cells were stained with fluorescent tag antibodies. All data were detected by a FACS Calibur flow cytometer and analyzed with FlowJo software. CD45-FITC, CD3-FITC, CD4-PE, CD4-FITC, CD8-APC, CD11b-APC, CD11 c-PE, CD25 (CD12-FITC)-PE, CD25-APC, B220-FITC, CD19-PE, CD86-APC, and Foxp3-Alexa Fluor647 were purchased from BD bioscience and F4/80-PE and CD206-APC were purchased from Biolegend (San Diego, Calif., USA).
as §1
Screening of the immune cells was performed by flow cytometry on CD4^+ T cells, CD8^+ T cells, B cells, dendritic cells, and macrophages from splenocytes of mice with cancer. The flow cytometry was performed in the same manner as Example 3-2.

[8] = tested on: tumor-associated macrophages (TAM); assay: Flow cytometry of tumor-associated macrophages in tumor tissue; format: in vivo, mice
Procedure: as §2, §3, §1

[9] = tested on: bone marrow-derived macrophages (BMDM); assay: Quantitative real-time PCR in bone marrow-derived macrophages; format: cell-based, mouse
Procedure: (§4) Cells were harvested as previously described to generate mouse bone marrow-derived macrophages. The cells were cultured for 7 days in an RPMI-1640 complete culture medium containing 10 ng/ml of mouse recombinant M-CSF (R & D systems, Minneapolis, Minn., USA). After the cells were differentiated into M0 macrophages, the cells were smeared in a 6-well plate (1×10^6 cells/well) and cultured overnight under 100 ng/ml LPS or 20 ng/ml mouse recombinant IL-4 (R & D system) to induce differentiation of M1 or M2 phenotype macrophages.
(§5) Quantitative real time PCR was performed according to previous reports. Data were expressed as […] for experimental genes, normalized to GAPDH, and expressed as a fold change compared to an LPS or IL-4 untreated control group. The following primers were used: Gapdh(for: […] (SEC) ID NO: 1); rev: […] (SEQ ID NO: 2)), Tnf-α(for: TTCTG […] (SEQ ID NO: 3); rev: GTAT […] (SEQ ID NO: 4), Mrc1/CD206(for: […] (SEQ ID NO: 5); rev: GGTT […] (SEQ ID NO: 6)), I1-10(for: […] (SEQ ID NO: 7); rev: […] (SEQ ID NO: 8)), Tgf-β(for: […] (SEQ ID NO: 9); rev: […] (SEQ ID NO: 10)), Vegf(for: GGAGA […] (SEQ ID NO: 11); rev: […](SEQ ID NO: 12)), F1t1/VEGFR1(for: […] (SEQ. ID NO: 13); rev: […] (SEQ ID NO: 14)).

[10] = tested on: Lewis lung carcinoma cells; assay: Quantitative real-time PCR in Lewis lung carcinoma cells; format: cell-based; conditions: control vs melittin-treated
Procedure: as §5

[11] = tested on: bone marrow-derived macrophages (BMDM); assay: ELISA of cytokines in BMDM culture supernatant; format: cell-based, mouse
Procedure: as §4
The secretion of cytokine from the culture medium was analyzed using an ELISA kit according to a procedure recommended by a provider. Mouse IL-10 and
TNF-α were purchased from BD Biosciences, and TGF-β was purchased from R & D systems. Results were expressed as pg of normalized cytokine per mg of total protein.

[12] = tested on: bone marrow-derived macrophages (BMDM); assay: Western blot analysis of BMDM; format: cell-based, mouse
Procedure: as §4
Total proteins were extracted using a RIPA buffer from melittin or PBS treated-bone marrow-derived macrophages and quantified by Bio-Rad analysis. 20 μg of protein was isolated on an 8% SDS Tris-glycine gel and transferred to a nitro cellulose cell membrane (Invitrogen). The following antibodies and dilution factors were used: VEGF goat polyclonal antibody (sc-1836, 1:1000, Santa Cruz), actin goat polyclonal antibody (sc-1616, 1:1000, Santa Cruz), […] CD206 (MCA2235GA 1:200, AbD serotec), anti-goat IgG conjugated to HRP (SA007, 1:1000, GenDEPOT), and anti-rat IgG bound to HRP (405405, 1:1000, Biolegend). Protein bands were visualized using an ECL solution (GE healthcare) and measured with Image J software. The strength of the protein has been normalized above that of actin.

[13] = tested on: M1-type bone marrow-derived macrophages; assay: Intracellular ROS production by H2DCFDA staining; format: cell-based, mouse; conditions: melittin-treated vs control, 24 hours
Procedure: The cells were added with 5 μM C2′,7′-dichlorodihydrofluorescein diacetate (H2DCFDA; molecular probe) and cultured at 37° C. for 30 minutes. The H2DCFDA-containing medium was removed and the cells were washed twice with preheated PBS. After the cells were collected, ROS production levels were immediately analyzed using flow cytometry.

[14] = tested on: tumor tissue; assay: Immunofluorescence confocal microscopy of VEGF and CD31 in tumor tissue; format: in vivo, mice
Procedure: The tumor of inoculated mice was fixed overnight with paraformaldehyde, dehydrated, and then placed in paraffin. Slices (5 μm thick) of the inserted tissue were cut in a rotary microtome and deparaffinized. The antigens of the slides were recovered by an autoclave in a trisodium citrate buffer (pH 6) for 1 minute, washed with PBS and then blocked for 1 hour with 1.5% BSA containing 0.2% Triton X-100. The slides were cultured overnight at 4° C. with anti-VEGF and anti-CD31 primary antibodies (1:200, Santa Cruz Biotechnology, Santa Cruz, Calif., USA).
All tissue slices were cultured at room temperature for 1 hour and then visualized with an alexa-488 or alexa-594 conjugated secondary antibody (1:500, Invitrogen). All the antibodies were diluted with a 0.5% BSA solution and cultured in a wet chamber. The slides were fixed with a DAPI solution and analyzed by laser scanning confocal microscopy (Bio-Rad, Richmond, Calif., USA). All images were captured with LSM and total integration density was measured with image J software.

[15] = melittin-treated tumor-bearing mice

## C=C1[C@@H](C)[C@H]2[C@H](Cc3ccccc3)NC(=O)[C@]23[C@H](OC(C)=O)/C=C/[C@@](C)(O)C(=O)[C@@H](C)C/C=C/[C@H]3[C@@H]1O [cytochalasin D, reference compound]
[1]; 10 nM cytochalasin D pretreatment vs DMSO control
  melittin+CD11b+ double positive cells in total CD11b+ cell population: no difference
[2]
  phagocytic capacity / phagocytosis index: significantly lowered

## CC[C@H](C)[C@H](NC(=O)CN)C(=O)NCC(=O)N[C@@H](C)C(=O)N[C@H](C(=O)N[C@@H](CC(C)C)C(=O)N[C@@H](CCCCN)C(=O)N[C@H](C(=O)N[C@@H](CC(C)C)C(=O)N[C@H](C(=O)N[C@H](C(=O)NCC(=O)N[C@@H](CC(C)C)C(=O)N1CCC[C@H]1C(=O)N[C@@H](C)C(=O)N[C@@H](CC(C)C)C(=O)N[C@H](C(=O)N[C@@H](CO)C(=O)N[C@@H](Cc1c[nH]c2ccccc12)C(=O)N[C@H](C(=O)N[C@@H](CCCCN)C(=O)N[C@@H](CCCNC(=N)N)C(=O)N[C@@H](CCCCN)C(=O)N[C@@H](CCCNC(=N)N)C(=O)N[C@@H](CCC(N)=O)C(=O)N[C@@H](CCC(N)=O)C(N)=O)[C@@H](C)CC)[C@@H](C)CC)[C@@H](C)O)[C@@H](C)O)C(C)C)C(C)C [melittin]
[3]; 0.5 mg/kg melittin peptide intraperitoneal, after 13 days of administration
  cancer growth reduced compared to the control group: 40%
[3]; 0.5 mg/kg melittin peptide intraperitoneal, day 15
  cancer growth suppressed compared to the control group: about 45%
[3]; tumor-bearing mice
  survival period vs control group (PBS-treated), Mantel-Cox analysis: significantly longer
[4]; day 0
  weight of mice: 22.84±0.36
[4]; day 18
  weight of mice: 24.72±0.45
[4]; measured every 2 to 3 days, 0 to 18 days
  weight loss: no weight loss
[5]; 0.5 mg/kg or 1 mg/kg melittin
  hematological factors (WBC, RBC, Hgb, HCT, MCV and MCH): did not result in significant changes
[5]; judged from N/L ratio
  acute cytotoxic damage: does not cause acute cytotoxic damage
[6]
  direct killing effect on cancer cells: no direct killing effect
[6]; 24 hours
  percentage of cells at each cell cycle stage: no percentage change
[7]; control vs melittin-treated groups
  other immune cells from total splenocytes: no percentage change
[7]; [15]
  CD45+F480+ macrophages in splenocytes: 5.10±0.42
  number of regulatory T cells in splenocytes: decreased slightly
[7]; spleen
  level of M1 or M2 type macrophages in splenocytes: not changed
[8]; [15]
  percentage of CD11b+F4/80+ macrophages in CD45+ tumor-infiltrating leukocytes: 38.70±0.79%
[8]; tumor, M1-type
  number of F4/80+CD86+ in CD45+ cells: not increased
[8]; tumor, M2-type
  percentage of F4/80+CD206+ in CD45+ cells: 9.53±0.63%
[1]; 0.5 μg/ml rhodamine-bound melittin, 1 hour
  melittin binding in CD11b+ cells: approximately 16%
[1]; M1 type
  percentage of melittin+CD86+ population in F4/80+ cells: 3.27±0.39%
[1]; M2 type
  percentage of melittin and CD206 double positive population in F4/80+ cells: 9.15±1.05%
[1]; rhodamine-bound melittin
  melittin binding to DC (CD11c): 24.44±0.56
  melittin binding to macrophages (F4/80) in annexinli-CD11b+ melittin+ cells: 67.70±2.96
  melittin binding to neutrophils (Gr-1): 36.36±0.95
[9]; LPS stimulation
  gene level of TNF-α: did not affect
[9]; M2-type BMDM (IL-4)
  gene expression level of IL-10: not changed
  gene expression level of TGF-β: not changed
  mRNA level for Mrc1/Cd206 compared to the control group: significantly reduced
  mRNA level for Vegf compared to the control group: significantly reduced
[10]
  mRNA level of Vegf: no large difference
  mRNA level of flt1/VFGFR: no large difference
[11]; LPS stimulation
  protein level of TNF-α: did not affect
[11]; M2-type BMDM (IL-4)
  protein expression level of IL-10: not changed
  protein expression level of TGF-β: not changed
[12]
  expression level of CD206 protein: reduced
  expression level of VEGF protein: reduced
[13]
  intracellular ROS levels: no difference
[14]; 0.5 mg/kg and 1 mg/kg vs PBS control group
  integrated density of VEGF (image J): significant difference
[14]; compared to a PBS group
  level of CD31 by immunofluorescence staining: decrease
  level of VEGF by immunofluorescence staining: decrease
